Like-named read-outs stand apart in the source and are kept apart here. Each block holds one molecule with its values, some of them ahead of it.
Assays:
[1] = molecular target: T1, OR5AN1 olfactory receptor (Homo sapiens, UniProt Q8NGI8); experiment: MUSCENONE®/musk dose-response on OR5AN1 in presence and absence of putative modulator (EC50 shift, span); assay type: cell-based; conditions: FIG. 6; MUSCENONE® dose response in the presence of 250 μM compound
T1 construct: expressed in transfected cells
T1 sequence (Q8NGI8 1-311): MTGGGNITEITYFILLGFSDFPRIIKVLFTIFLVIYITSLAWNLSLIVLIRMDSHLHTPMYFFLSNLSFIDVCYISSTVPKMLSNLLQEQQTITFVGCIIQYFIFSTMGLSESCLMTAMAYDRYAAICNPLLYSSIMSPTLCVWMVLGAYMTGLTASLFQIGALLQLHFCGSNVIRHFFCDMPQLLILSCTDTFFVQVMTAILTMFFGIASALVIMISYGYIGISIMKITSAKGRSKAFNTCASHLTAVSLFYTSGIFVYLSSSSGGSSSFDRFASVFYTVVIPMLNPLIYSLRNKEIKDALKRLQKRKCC

[2] = molecular target: T1, OR5AN1 olfactory receptor; experiment: Allosteric EC50 shift analysis: MUSCENONE® dose response with serial concentrations of enhancer; assay type: cell-based; conditions: same method as for TDA
Method: The level of enhancement of the OR5AN1 olfactory receptor activation was evaluated at distinct concentrations of the enhancer. […] The curves were obtained by applying the simplified Allosteric EC50 shift effect equation (available in Prism5, v. 5.02) derived from the ternary complex interaction model.

[3] = molecular target: T1, OR5AN1 olfactory receptor; experiment: Single point binary mixture screen (MUSCENONE® + test compound) on a cell line expressing OR5AN1; assay type: cell-based; conditions: MUSCENONE® 10 μM + test compound 500 μM, compared to MUSCENONE® alone
Method: 481 binary mixtures were created by mixing a MUSCENONE® stock solution with a stock solution of each test compound to a final concentration 10 and 500 μM, respectively. Stock solutions were made of compounds dissolved in pure DMSO. Each mixture was presented to a cell line expressing the OR5AN1 olfactory receptor. The final concentration of DMSO in each binary mixture was 0.17%, and had no visible effect on the cells
The resulting activation was then measured and compared to MUSCENONE® alone (defining the baseline of the enhancement assay). The quality of the HTS process was determined and the window variability and signal reliability were assessed by calculating the Z′ value of each plate. Twenty hits were obtained, five of which were macrocyclic ketone and nitromusk OR5AN1 olfactory receptor agonists (hit n° 1, 2, 3, 5 and 9). These OR5AN1 olfactory receptor agonists further confirmed that the dynamic range of the assay window was sufficient (as the responses recorded were well above baseline) and thus likely sensitive enough to detect even low levels of putative enhancement.

[4] = molecular target: T1, OR5AN1 olfactory receptor; experiment: Response of the OR5AN1 olfactory receptor to musk compounds (HTRF); assay type: cell-based
[5] = molecular target: T1, OR5AN1 olfactory receptor; experiment: MUSCENONE®/musk dose-response on OR5AN1 in presence and absence of putative modulator (EC50 shift, span); assay type: cell-based; conditions: MUSCENONE® dose response in the presence of 250 μM compound
Method: Next, two parallel dose-response experiments to confirm the true enhancement properties of the potential candidates were performed. First, a dose-response of each individual candidate was performed to determine if it was an agonist by itself.
The resulting enhancement was quantified by means of EC50-fold shift (potency increase) and the efficacy span ratio (efficacy increase).
The EC50-fold shift was obtained by dividing the EC50 of MUSCENONE® +compound by the reference EC50 MUSCENONE® alone. The span ratio was obtained by dividing the span of MUSCENONE®+compound by the reference span of MUSCENONE® alone.

[6] = system: OR5AN1 allele 4; experiment: Cell based assay of hypofunctional OR5AN1 allele 4 with and without enhancer; design: species or system human
[7] = Odor detection threshold (ODT) forced-choice triangle test with background odor; assay type: in vivo, human
Method: Sensitivity of human individuals to MUSCENONE® was evaluated by performing an odor detection threshold (ODT) test. The ODT test consisted of identifying the concentration for which 50% of the panelists are able to determine which of three containers contains the target compound Muscenone® in a forced-choice triangle tests. Two tests were performed to calculate the ODT in mixtures containing Muscenone® plus a perceivable background odor of chemically similar molecules a) the enhancer tridecylenic aldehyde and b) the non-enhancing volatile compound, nonanal.
27 panelists were given a series of triangle tests with increasing concentration of MUSCENONE® in the presence of nonanal at a concentration of 0.1%. Within each triangle test, the three samples contained nonanal at 0.1% and one sample also contained MUSCENONE®. In each triangle test, the panelists were asked to identify the one sample that was different from the other two samples. The ODT was calculated by fitting a non-linear regression model onto the data and calculating the MUSCENONE® concentration at which the proportion of correct responses was equal to ⅔ (the midpoint between chance rate ⅓ and all correct answers 1). […]

[8] = system: OR5AN1 allele 3; experiment: Cell based assay of hypofunctional OR5AN1 allele 3 with and without enhancer; design: species or system human

Molecule: O=CCCc1ccccc1 [3-phenylpropanal]
Inhibition of the activity of the OR5AN1 olfactory receptor [1]: inhibit the activity

Molecule: CCCCCC/C=C/C=O [nonylenic aldehyde]
Allosteric modulation properties [2]: allosteric modulation properties similar to TDA

Molecule: CC(=O)c1c(C)c([N+](=O)[O-])c(C(C)(C)C)c([N+](=O)[O-])c1C [Musk ketone]
Activation of the OR5AN1 olfactory receptor ([4]; FIG. 1a): specifically activated | Span (HTRF ratio) ([4]; efficacy, maximum span): 4312 HTRF ratio

Molecule: CCCCCCCCCCC/C=C/C=O [Compound 7, (E)-2-tetradecenal]
Hit Type [3]: Agonist

Molecule: CCCCCCCC=CC=O [Compound 2-decenal, 2-decenal]
Allosteric modulation properties [2]: allosteric modulation properties similar to TDA

Molecule: CCCCCCCC=O [octanal]
Inhibition of the activity of the OR5AN1 olfactory receptor [1]: inhibit the activity

Molecule: CC(C)=CCCC(C)C/C=C/C=O (racemic) [Compound 5, (+−)-(2E)-5,9-dimethyl-2,8-decadienal]
Hit Type [3]: Agonist

Molecule: CC12C3CC(CC31)[C@]2(C)C/C=C/C=O (single isomer, unassigned; (+))
Inhibition of the activity of the OR5AN1 olfactory receptor [1]: inhibit the activity

Molecule: CCC/C=C/C=O [(E)-2-hexenal]
Inhibition of the activity of the OR5AN1 olfactory receptor [1]: inhibit the activity

Molecule: COc1ccccc1/C=C/C=O [(E)-3-(2-methoxyphenyl)prop-2-enal]
Inhibition of the activity of the OR5AN1 olfactory receptor [1]: inhibit the activity

Molecule: CC(=O)c1ccccc1N [Compound 20]
Hit Type [3]: Enhancement

Molecule: CCCCCCCC/C=C/C(=O)O [(E)-2-undecenoic acid]
Inhibition of the activity of the OR5AN1 olfactory receptor [1]: inhibit the activity

Molecule: C=CCCCCCCCCC(=O)O [undecenoic acid]
OR5AN1 Musk response enhancement [5]: absence of enhancement

Molecule: SCc1ccco1 [furfuryl mercaptan]
Inhibition of the activity of the OR5AN1 olfactory receptor [1]: inhibit the activity

Molecule: CC/C=C\CC/C=C/CO [(E)-2-(Z)-6-nonadien-1-ol]
Inhibition of the activity of the OR5AN1 olfactory receptor [1]: inhibit the activity

Molecule: CCC/C=C/C=O [Compound 12]
Hit Type [3]: Enhancement

Molecule: CCCCCCCCC=O [nonanal, reference compound]
OR5AN1 Musk response enhancement [5]: non-enhancing

Molecule: CC1C2CC(CC2C2CCCC(O)C2)C1(C)C (stereo not drawn) [sandenol]
Inhibition of the activity of the OR5AN1 olfactory receptor [1]: inhibit the activity

Molecule: CCCCCCC/C=C/C=O [Compound 11]
Hit Type [3]: Enhancement

Molecule: Trans-2,6,7-dimethyl-2,6-octadienal [Compound 9]
Hit Type [3]: agonists

Molecule: Cc1c([N+](=O)[O-])c(C)c([N+](=O)[O-])c(C(C)(C)C)c1[N+](=O)[O-] [Musk xylol]
Activation of the OR5AN1 olfactory receptor [4]: specifically activated | Span (HTRF ratio) [4]: 4217 HTRF ratio

Molecule: C/C(C=O)=C\CCc1ccc(C(C)(C)C)cc1 [trans-5-(4-tert-butylphenyl)-2-methylpent-2-enal]
Inhibition of the activity of the OR5AN1 olfactory receptor [1]: inhibit the activity

Now from value to molecule, other results behind:

Inhibition of the activity of the OR5AN1 olfactory receptor [1]: inhibit the activity
Molecule: CCCCCCCCCC/C=C/C(=O)O [(E)-2-tridecenoic acid]

Hit Type [3]: Enhancement
Molecule: COC(=O)c1ccccc1OC [Compound 16]

Hit Type [3]: Agonist
Molecule: (2E)-7,8-dimethyl-2,7-nonadienal [Compound 1]

Inhibition of the activity of the OR5AN1 olfactory receptor [1]: inhibit the activity
Molecule: CCCCCCCCC/C=C/C(=O)O [(E)-2-dodecenoic acid]

Inhibition of the activity of the OR5AN1 olfactory receptor [1]: inhibit the activity
Molecule: CC1=CCCC2(CCCCC2)C1/C=C/C=O (racemic) [(+−)-(2E)-3-(2-methylspiro [5.5]undec-2-en-1-yl) acrylaldehyde]

Hit Type [3]: agonists
Molecule: (2E)-7-methyl-2,6-octadienal [Compound 3]

Inhibition of the activity of the OR5AN1 olfactory receptor [1]: inhibit the activity
Molecule: CCCCC/C=C/CCC=O [(E)-dec-4-enal]

Inhibition of the activity of the OR5AN1 olfactory receptor [1]: inhibit the activity
Molecule: CCCCCCCCCC/C=C/CO [(E)-2-tridecenol]

Inhibition of the activity of the OR5AN1 olfactory receptor [1]: inhibit the activity
Molecule: CC/C(=C\CC1CC=C(C)C1(C)C)CO (stereo not drawn) [bacdanol]

Inhibition of the activity of the OR5AN1 olfactory receptor [1]: inhibit the activity
Molecule: CC(C)c1cccc(C(C)CC=O)c1 (stereo not drawn) [3-(3-propan-2-ylphenyl)butanal]

EC50 ([6]; allele 4, absence of enhancer): 10.1 µM | EC50 ([6]; allele 4, in the presence of 250 μM tridecylenic aldehyde): 1.6 µM | Activation of the OR5AN1 olfactory receptor ([4]; FIG. 1a): specifically activated | Span (HTRF ratio) ([4]; efficacy, maximum span): 3629 HTRF ratio | EC50 ([8]; allele 3, absence of enhancer): 9 µM | EC50 ([8]; allele 3, in the presence of 250 μM tridecylenic aldehyde): 1.5 µM
Molecule: CC1CC=CCCCCCCCCCC(=O)C1 (stereo not drawn) [MUSCENONE®]
Activity (span) ([6]; allele 4, absence of enhancer): 2328 relative fluorescent HTRF units | Activity (span) ([6]; allele 4, in the presence of tridecylenic aldehyde): 5026 relative fluorescent HTRF units | ODT (odor detection threshold) ([7]; in the presence of nonanal at 0.1%, 27 panelists): 0.93% | ODT (odor detection threshold) ([7]; in the presence of tridecylenic aldehyde at 0.1%, 28 panelists): 0.09% | Activity (span) ([8]; allele 3, absence of enhancer): 2311 relative fluorescent HTRF units | Activity (span) ([8]; allele 3, in the presence of tridecylenic aldehyde): 4663 relative fluorescent HTRF units

Inhibition of the activity of the OR5AN1 olfactory receptor [1]: inhibit the activity
Molecule: CC/C=C\CCCCCO [(Z)-6-nonen-1-ol]

Activation of the OR5AN1 olfactory receptor ([4]; FIG. 1a): specifically activated | Span (HTRF ratio) ([4]; efficacy, maximum span): 2979 HTRF ratio
Molecule: C[C@@H]1CCCCCCCCCCCCC(=O)C1 [Muscone]

Hit Type [3]: Enhancement
Molecule: CCCCCC/C=C/C=O [Compound 6]

Inhibition of the activity of the OR5AN1 olfactory receptor [1]: inhibit the activity
Molecule: CCCCCOC(=O)CCCC [pentyl valerate]
